Patent publication EP2196465A1, “(3-oxo)pyridazin-4-ylurea derivatives as PDE4 inhibitors” (Almirall, S.A., priority 2008, dated 2010)

Target: recombinant PDE4 enzyme
Assay: PDE4 [3H] cAMP Scintillation Proximity Assay (SPA)
Format: biochemical
Settings: inhibition of PDE4; 30 nM [3H] cAMP, 1 hr at room temperature, yeast extract of recombinant PDE4 enzyme
Description: Measurement of Phosphodiesterase Activity was done using a [3H] cAMP Scintillation Proximity Assay (SPA) (GE Healthcare). Compounds to be tested were disolved in DMSO at a stock concentration of 1mM and serial dilutions were prepared in 50% DMSO to determine IC50s.
The reactions were conducted in 96-well plates (Corning, Ref.3604) at room temperature, in 0.1 ml of reaction buffer containing (final concentrations): 50 mM Tris-HCl, pH 7.5, 8.3 mM MgCl2, 1.7 mM EGTA, 30 nM [3H] cAMP (approximately 150000 dpm/well) with or without the inhibitors. The reaction was initiated by adding yeast extract of recombinant PDE4 enzyme.
Plates were shaken for 1 hr at room temperature and the incubation was terminated by adding 50 µl (0.5 mg /well) of SPA yttrium silicate beads (RPNQ 0150; GE Healthcare) in the presence of zinc sulfate. Plates were stored overnight in the dark and read on a TRILUX microtiter plate reader (Perkin Elmer).

Row | IC50 | SMILES
1 | 0.1 nM | CCn1nc(-c2cccc(-c3cccc(CC(=O)NCCN4CCCCC4)c3)c2)cc(NC(=O)Nc2c(Cl)cncc2Cl)c1=O [Example 118, 2-(3'-(5-(3-(3,5-dichloropyridin-4-yl)ureido)-1-ethyl-6-oxo-1,6-dihydropyridazin-3-yl)biphenyl-3-yl)-N-(2-(piperidin-1-yl)ethyl)acetamide]
2 | 0.061 nM | CCn1nc(-c2cccc(-c3cccc(CC(=O)NCCN4CCOCC4)c3)c2)cc(NC(=O)Nc2c(Cl)cncc2Cl)c1=O [Example 119, 2-(3'-(5-(3-(3,5-dichloropyridin-4-yl)ureido)-1-ethyl-6-oxo-1,6-dihydropyridazin-3-yl)biphenyl-3-yl)-N-(2-morpholinoethyl)acetamide]
3 | 0.031 nM | CCn1nc(-c2cccc(-c3cccc(C(=O)NCCCCCCCN(C)CCO)c3)c2)cc(NC(=O)Nc2c(Cl)cncc2Cl)c1=O [Example 120, 3'-(5-(3-(3,5-dichloropyridin-4-yl)ureido)-1-ethyl-6-oxo-1,6-dihydropyridazin-3-yl)-N-(7-((2-hydroxyethyl)(methyl)amino)heptyl)biphenyl-3-carboxamide]
4 | 0.056 nM | CCn1nc(-c2cccc(-c3ccc(CC(=O)NCCCCCCCN(C)CCO)cc3)c2)cc(NC(=O)Nc2c(Cl)cncc2Cl)c1=O [Example 122, 2-(3'-(5-(3-(3,5-dichloropyridin-4-yl)ureido)-1-ethyl-6-oxo-1,6-dihydropyridazin-3-yl)biphenyl-4-yl)-N-(7-((2-hydroxyethyl)(methyl)amino)heptyl)acetamide]
5 | 0.037 nM | CCn1nc(-c2cccc(-c3cc(O)cc(C(=O)NCCCCCCCN(C)CCO)c3)c2)cc(NC(=O)Nc2c(Cl)cncc2Cl)c1=O [Example 124, 3'-(5-(3-(3,5-dichloropyridin-4-yl)ureido)-1-ethyl-6-oxo-1,6-dihydropyridazin-3-yl)-5-hydroxy-N-(7-((2-hydroxyethyl)(methyl)amino)heptyl)biphenyl-3-carboxamide]
6 | 0.076 nM | CCn1nc(-c2cccc(-c3cc(O)cc(C(=O)NC4CC4)c3)c2)cc(NC(=O)Nc2c(Cl)cncc2Cl)c1=O [Example 126, N-cyclopropyl-3'-[5-({[(3,5-dichloropyridin-4-yl)amino]carbonyl}amino)-1-ethyl-6-oxo-1,6-dihydropyridazin-3-yl]-5-hydroxybiphenyl-3-carboxamide]
7 | 0.173 nM | CCn1nc(-c2cccc(-c3cccc(CC(=O)NC4CC4)c3)c2)cc(NC(=O)Nc2c(Cl)cncc2Cl)c1=O [Example 127, N-cyclopropyl-2-{3'-[5-({[(3,5-dichloropyridin-4-yl)amino]carbonyl}amino)-1-ethyl-6-oxo-1,6-dihydropyridazin-3-yl]biphenyl-3-yl}acetamide]
8 | 0.391 nM | CCn1nc(-c2cccc(-c3cccc(C(=O)NCc4ccc(O)cc4)c3)c2)cc(NC(=O)Nc2c(Cl)cncc2Cl)c1=O [Example 138, 3'-[5-({[(3,5-dichloropyridin-4-yl)amino]carbonyl}amino)-1-ethyl-6-oxo-1,6-dihydropyridazin-3-yl]-N-(4-hydroxybenzyl)biphenyl-3-carboxamide]

More lines, now with the values behind:

Row | SMILES | IC50
9 | CCn1nc(-c2cccc(-c3cc(F)ccc3O)c2)cc(NC(=O)Nc2c(Cl)cncc2Cl)c1=O [Example 4, N-(3,5-Dichloropyridin-4-yl)-N'-[2-ethyl-6-(5'-fluoro-2'-hydroxybiphenyl-3-yl)-3-oxo-2,3-dihydropyridazin-4-yl]urea] | 0.237 nM
10 | CCn1nc(-c2cccc(-c3cccc(C(=O)NCCN(C)C)c3)c2)cc(NC(=O)Nc2c(Cl)cncc2Cl)c1=O [Example 17, 3'-[5-({[(3,5-Dichloropyridin-4-yl)amino]carbonyl}amino)-1-ethyl-6-oxo-1,6-dihydropyridazin-3-yl]-N-[2-(dimethylamino)ethyl]biphenyl-3-carboxamide] | 0.047 nM
11 | CCn1nc(-c2cccc(-c3cccc(C(=O)NC4CC4)c3)c2)cc(NC(=O)Nc2c(Cl)cncc2Cl)c1=O [Example 21, N-Cyclopropyl-3'-[5-({[(3,5-dichloropyridin-4-yl)amino]carbonyl}amino)-1-ethyl-6-oxo-1,6-dihydropyridazin-3-yl]biphenyl-3-carboxamide] | 0.127 nM
12 | CCn1nc(-c2cccc(-c3cccc(C(=O)NCCCN(C)C)c3)c2)cc(NC(=O)Nc2c(Cl)cncc2Cl)c1=O [Example 22, 3'-[5-({[(3,5-Dichloropyridin-4-yl)amino]carbonyl}amino)-1-ethyl-6-oxo-1,6-dihydropyridazin-3-yl]-N-[3-(dimethylamino)propyl]biphenyl-3-carboxamide] | 0.133 nM
13 | CCn1nc(-c2cccc(-c3ccc(C(=O)O)cc3)c2)cc(NC(=O)Nc2c(Cl)cncc2Cl)c1=O [Example 26, 3'-[5-({[(3,5-Dichloropyridin-4-yl)amino]carbonyl}amino)-1-ethyl-6-oxo-1,6-dihydropyridazin-3-yl]biphenyl-4-carboxylic acid] | 0.098 nM
14 | CCn1nc(-c2cccc(-c3cccc(C(=O)NCCN4CCCCC4)c3)c2)cc(NC(=O)Nc2c(Cl)cncc2Cl)c1=O [Example 51, 3'-[5-({[(3,5-Dichloropyridin-4-yl)amino]carbonyl}amino)-1-ethyl-6-oxo-1,6-dihydropyridazin-3-yl]-N-(2-piperidin-1-ylethyl)biphenyl-3-carboxamide] | 0.104 nM
15 | CCn1nc(-c2cccc(-c3ccc(CC(=O)NCCN4CCCCC4)cc3)c2)cc(NC(=O)Nc2c(Cl)cncc2Cl)c1=O [Example 117, 2-(3'-(5-(3-(3,5-dichloropyridin-4-yl)ureido)-1-ethyl-6-oxo-1,6-dihydropyridazin-3-yl)biphenyl-4-yl)-N-(2-(piperidin-1-yl)ethyl)acetamide] | 0.049 nM
